Consider 14 compounds from patent US6638970B2, “Substituted alkylene diamine compounds” (CV Therapeutics, Inc., priority 2000, dated 2003).

Data set [1] is described as follows: Metabolic stability in human liver S-9 fractions. The class given is in vitro ADME. As to conditions: for Liver S-9 stability factor: % parent remaining after 30 min in human liver S-9 divided by average % of ranolazine remaining (57%). As to the method: Metabolic Stability: As a measure of metabolic stability the compounds of this invention were incubated with human liver S-9 microsomal fractions. After, 30 minutes at 37 C, the amount of parent drug remaining was determined using LC-mass spec. The response factors for each compound was determined by establishing a standard curve and using an internal standard during the analysis of the samples. An average of five experiments for percentage of ranolazine remaining at the 30 minute time point is 57%. The compounds of this invention were assayed as described in the protocol below and the percentage of parent remaining was divided by the average % of ranolazine remaining (57%) affording a metabolic stability factor. A compound with a stability number greater than 1.2 has a better stability than ranolazine in the liver S-9 assay. A compound with a stability number between 1.2 and 0.8 has an equivalent stability in the liver S-9 assay.
The purpose of this experiment is to compare the percentages remaining for compounds of this invention with the percentage remaining for ranolazine after 30 minutes of incubation with human liver S9 fractions.
The following reagents were used; Potassium phosphate, 0.5M […]. (incubation buffer), kept at room temperature; 0.05M MgCl2 kept at 4° C.; β-Nicotinamide adenine dinucleotide phosphate, tetrasodium salt, reduced form (NADPH), 0.02M solution in water (˜16.6 mg/mL) from Sigma Lot # 79H7044 prepared on day of use. 1 mM of ranolazine or Compounds 7, 9, and 10-13 in ACN further diluted to obtain 100 μM in 10% ACN; Human S9 stock: 20 mg/mL from Gentest Lot 3.
Incubation mixtures were prepared as follows:
Combine all components with incubation buffer and re-pipette 200 μL/tube+25 μL of the compound being tested along with 25 μL of S-9.
After 5 min of pre-incubation at 37° C., at 0 and 30 min after starting the reaction, a 50 μl aliquot of the incubation mixture was removed and added to 100 μL of 9:1 acetonitrile:methanol containing the internal standard.
The mixture was centrifuged and a 100 μL aliquot of the supernatant was diluted in 1 mL of solvent C (0.1% Formic Acid in water). Then samples were analyzed for change between the ratio of compound to internal standard at time zero and 30 minutes by LC/MS (injected 10 μL).
Samples were analyzed for the starting compounds and potential metabolite/s by LC/MS using an internal standard on a Micromass platform mass spec with a Keystone Inc. BDS ODS-C18 column with a flow rate of 0.25 ml/min.

The test system of data set [2] is mitochondrial fatty acid oxidation using palmitoyl carnitine as substrate. Briefly: Palmitoyl carnitine oxidation in isolated rat heart mitochondria. The class given is biochemical. As to conditions: 15 min at 30° C. As to the method:
(§1) Rat heart mitochodria were isolated by the method of Nedergard and Cannon (Methods in Enzymol. 55, 3, 1979).
(§2) Palmitoyl Carnitine Oxidation—The Palmitoyl carnitine oxidation was carried out in a total volume of 100 microliters containing the following agents: 110 mM KCl, 33 mM Tris buffer at pH 8, 2 mM KPi, 2 mM MgCl2, 0.1 mM EDTA, 0.1 mg/ml of defatted BSA, 0.5 mM malic acid, 3 mM ADP, 52 micrograms of mitochondrial protein, and 43 microM 1-C14 palmitoyl carnitine (Sp. Activity 60 mCi/mmole; 20 microCi/ml, using 5 microliters per assay). The compounds of this invention were added in a DMSO solution at the following concentrations: 100 microM, 30 microM, and 3 microM. In each assay, a DMSO control was used. After 15 min at 30° C., the enzymatic reaction was centrifuged (20,000 g for 1 min), and 70 microliters of the supernatant was added to an activated reverse phase silicic acid column (approximately 0.5 ml of silicic acid). The column was eluted with 2 ml of water, and 0.5 ml of the eluent was used for scintillation counting to determine the amount of C^14 trapped as C^14 bicarbonate ion. The data are presented as % activity of control.

Data set [3] deals with mitochondrial fatty acid oxidation using palmitoyl CoA as substrate. Briefly: Palmitoyl CoA oxidation in isolated rat heart mitochondria. The format is biochemical. The conditions noted are these: 15 min at 30° C. As to the method:
as §1
as §2, with “Palmitoyl CoA oxidation—The” for “Palmitoyl Carnitine Oxidation—The”, “Palmitoyl CoA” for “Palmitoyl carnitine”, “EDTA, 14.7 microM” for “EDTA, 0.1 mg/ml of”, “acid, 13 mM carnitine, 1” for “acid, 3”, “and 16” for “and 43”, “palmitoyl CoA” for “palmitoyl carnitine”

For `Cc1cccc(C)c1NC(=O)CN(C)CCN(C)CC(O)Cc1ccc2c(c1)OCO2` (stereo not shown) [Compound 20], the “Liver S-9 stability factor” value in data set [1] came to 1.59. Besides, the “Palmitoyl carnitine oxidation remaining, % activity of DMSO control” value in data set [2] (100 μM compound) turned out to be 98.7%. For `CCN(CCN(CC)CC(O)COc1c(Cl)cccc1Cl)CC(=O)Nc1c(C)cccc1C` (stereo not shown) [Compound 14], the “Palmitoyl CoA oxidation activity, % of DMSO control” value (shortened to “Palmitoyl CoA oxidation activity, %”) in data set [3] (100 μM compound) was determined as 97.1%. On the same count and under the same terms, with `CCN(CCN(CC)CC(O)COc1ccccc1OC)CC(=O)Nc1c(C)cccc1C` (stereo not shown) [Compound 13] the figure was 67.8%.

Take `Cc1cccc(C)c1NC(=O)CN(C)CCCN(C)CC(O)Cc1ccccc1` (stereo not shown) [Compound 21]: the “Liver S-9 stability factor” value in data set [1] was found to be 0.08. In addition, the “Palmitoyl carnitine oxidation remaining, % activity of DMSO control” value in data set [2] (100 μM compound) is 4.9%. As to `Cc1cccc(C)c1NC(=O)CN(C)CCN(C)CC(O)COc1c(Cl)cccc1Cl` (stereo not shown) [Compound 10], the “Palmitoyl CoA oxidation activity, %” value in data set [3] (100 μM compound) is on record as 23%. For the compound `COc1ccccc1OCC(O)CN1CCN(CC(=O)Nc2c(C)cccc2C)CC1` (racemic) [Ranolazine, (±)-N-(2,6-dimethylphenyl)-4-[2-hydroxy-3-(2-methoxyphenoxy)-propyl]-1-piperazineacetamide, reference compound], the “Liver S-9 stability factor” value in data set [1] turned out to be 1.0. Moreover, the “percentage of parent drug remaining at the 30 minute time point” value in data set [1] (human liver S-9, 30 minutes at 37 C, 10 μM, average of five experiments) is given as 57%. Also, the “Palmitoyl CoA oxidation activity, %” value is 90% in data set [3] (30 μM compound) and 75% in data set [3] (100 μM compound). The results for the “Palmitoyl carnitine oxidation remaining, % activity of DMSO control” value in data set [2] (30 μM compound) and in data set [2] (100 μM compound) were 98% and 63%, respectively. For the compound `CCN(CCN(CC)CC(O)Cc1ccc2c(c1)OCO2)CC(=O)Nc1c(C)cccc1C` (stereo not shown) [Compound 19], in data set [3] (100 μM compound), the “Palmitoyl CoA oxidation activity, %” value amounted to 26%. The “Palmitoyl carnitine oxidation remaining, % activity of DMSO control” value in data set [2] (100 μM compound) was 97.1%. Turning to `Cc1cccc(C)c1NC(=O)CN(C)CCCN(C)CC(O)Cc1ccc2c(c1)OCO2` (stereo not shown) [Compound 22], the “Liver S-9 stability factor” value in data set [1] is given as 1.58. The “Palmitoyl CoA oxidation activity, %” value in data set [3] (100 μM compound) is recorded as 12.5%. Besides, in data set [2] (100 μM compound), the “Palmitoyl carnitine oxidation remaining, % activity of DMSO control” value is 97%. For `CCN(CCN(CC)CC(O)c1ccccc1Cl)CC(=O)Nc1c(C)cccc1C` (stereo not shown) [Compound 17], the “Liver S-9 stability factor” value in data set [1] came out at 0.01. The “Palmitoyl CoA oxidation activity, %” value in data set [3] (100 μM compound) amounted to 34.3%. On to `COc1ccccc1OCC(O)CN(C)CCN(C)CC(=O)Nc1c(C)cccc1C` (stereo not shown) [Compound 9], for which the “Palmitoyl CoA oxidation activity, %” value in data set [3] (100 μM compound) was determined as 8.83%.

`Cc1cccc(C)c1NC(=O)CN(C)CCN(C)CC(O)Cc1cccc2ccccc12` (stereo not shown) [Compound 12]: the “Palmitoyl CoA oxidation activity, %” value in data set [3] (100 μM compound) worked out at 26.5%.

As for `COc1ccccc1CC(O)CN(C)CCN(C)CC(=O)Nc1c(C)cccc1C` (stereo not shown) [Compound 11], the “Palmitoyl CoA oxidation activity, %” value in data set [3] (100 μM compound) came to 8%.

Take `CCN(CCN(CC)CC(O)c1ccccc1F)CC(=O)Nc1c(C)cccc1C` (stereo not shown) [Compound 18]: the “Palmitoyl CoA oxidation activity, %” value in data set [3] (100 μM compound) is 54.8%. For the compound `Cc1cccc(C)c1NC(=O)CN(C)CCN(C)CC(O)COc1ccc2c(c1)OCO2` (stereo not shown) [Compound 7, 2-({2-[(3-(2H-benzo[d]1,3-dioxolen-5-yloxy)-2-hydroxypropyl)methylamino]ethyl}methylamino)-N-(2,6-dimethylphenyl)acetamide], in data set [1], the “Liver S-9 stability factor” value came out at 1.51.
